{"source": "patent US12115177B1", "about": "“Application of phenyl glucuronide in preparing drug for pre-warning of cancer via induced volatolomics” (Shanghai Jiao Tong University, priority 2023, dated 2024)", "key": {"[1]": {"test": "Stability verification of phenyl-β-D-glucuronide PBS solution (UPLC-MS and PDA detector)", "assay_type": "physicochemical", "conditions": "for peak area of phenyl-β-D-glucuronide: 400 μg/mL in PBS, PDA detector at 280 nm", "protocol": "PBS is used as solvent to prepare a phenyl-β-D-glucuronide solution at a concentration of 400 micrograms per milliliter (μg/mL), 1 mL phenyl-β-D-glucuronide solution is added individually into 1.5-mL injection bottles and sealed. The four bottles of drug solutions are treated as follows: the bottle A is a ready-to-use drug immediately analyzed for composition using ultra performance liquid chromatography mass spectrometry (UPLC-MS); the bottle B is placed in a refrigerator at 4° C. for 2 weeks and then analyzed for composition using UPLC-MS; the bottle C is placed at room temperature (25° C.) for 1 week and then analyzed for composition using UPLC-MS; and the ready-to-use drug in bottle D is analyzed for composition using UPLC-MS and […] (PDA) detectors after heating for 7 hours at 38.5° C. in a water bath. In addition, a 20 parts per million (ppm) phenol standard solution is prepared for UPLC-MS and PDA analysis.\nThe results are shown in FIGS. 1A-1D, FIGS. 2A-2D, and FIGS. 3A-3E.\nThe main purpose of setting these three temperatures (i.e., room temperature, 4° C., and 38.5° C.) is to characterize that the drug can be stored in a 4° C. refrigerator or room temperature for a long time without decomposition or deterioration. From the peak area data, it can be seen that the drug can be stored in a 4° C. refrigerator for 2 weeks or at room temperature for 1 week, and the effective component of the drug, phenyl-β-D-glucuronide, is basically unchanged, so under the condition of qualified sealing conditions, the drug solution can be stored for a longer time, which has practical application potential."}, "[2]": {"test_system": "gastric mucosal epithelial cells", "conditions": "500 μg/mL, 40 hours incubation, CCK-8", "procedure": "There is culture medium without inoculation of the cells with 100 μL per well. After incubation for 40 hours, the culture medium is discarded, 100 μL DMEM medium containing 10% cell counting kit 8 (CCK-8) is added to each well, and then incubated in the incubator for 2 hours. The value of optical density (OD) at 450 nm is monitored with a microplate reader for each well, and the cell viability is calculated based on the value of optical density."}, "[3]": {"test_system": "MGC-803 subcutaneous gastric cancer model", "procedure": "In the embodiment of the disclosure, the mice used are 6-week-old female BALB/c-nude mice, specific pathogen-free (SPF) grade, and the weight at purchase is 17±1.5 g. purchased from Shanghai Jessie Experimental Animal Co., Ltd. Mice are raised in cages in clean animal rooms. The cages are ventilated through a central control system. The indoor temperature is 25±2° C., and the feed and water are used after autoclaved.\nAfter one week of adaptive feeding of the nude mice, the body weight is 20±2 g. During the feeding period, the growth and mental state of the mice are observed every day. The mice are randomly divided into two groups, namely a cancer group and a healthy group. In the cancer group, MGC-803 cells are used to construct a subcutaneous gastric cancer model. […] After the cells are adhered to the wall and grown to full size, they are digested with pancreatic enzyme, centrifuged, washed twice with PBS to remove residual serum, resuspended with PBS at a cell density of approximately about 5*10^7 cells/mL, and a cell inoculation volume of each mouse is 100 μL. The cell suspension used for inoculation should be inoculated within half an hour. During this period, the cells are placed on ice to reduce the metabolic activity of the cells to maintain cell activity. The tumor is implanted in the area with abundant blood supply in the middle and rear of the armpit, and the size of the tumor is measured weekly after the tumor is formed. Generally, the induced volatolomics experiment can be started at the third week after the implantation of the cells.\nThe exhaled breath extraction device enriches the volatile substances in the exhaled breath of mice to the extraction core of headspace solid-phase microextraction (SPME), which is used to analyze the composition and relative content of the exhaled breath of mice before and after drug administration. A large mouth glass container with a volume of about 400 mL is used, the bottle mouth is frosted, and the sealing gasket, silicone plug and fixing clip are used to ensure sealing. The device is cleaned and dried before use. The mice needed to extract exhaled breath components are put into the glass container. The whole device is placed in a constant temperature environment of 25° C., sealed for 1 hour, and supplemented with oxygen at an interval of 15 minutes by injecting 10 mL of pure oxygen (99.9%) through the silicone plug with a glass syringe. After sealing for 1 hour, a 75 μm Car/PDMS extraction core is inserted into the glass container through the silicone plug, and the black extraction core is extended for headspace solid-phase microextraction for 30 minutes. The extraction process is carried out at a constant temperature of 25° C., and the oxygen is supplemented regularly according to the above process.\nThe above 10 healthy mice and 10 tumor bearing mice are taken and injected with MGC-803 cells subcutaneously as Day 0 in the experiment."}, "β-glucuronidase": {"biological_target": "T1, β-glucuronidase (Escherichia coli, UniProt P05804)", "T1 construct": "purchased Sigma-Aldrich 8162", "T1 sequence (P05804 whole entry)": "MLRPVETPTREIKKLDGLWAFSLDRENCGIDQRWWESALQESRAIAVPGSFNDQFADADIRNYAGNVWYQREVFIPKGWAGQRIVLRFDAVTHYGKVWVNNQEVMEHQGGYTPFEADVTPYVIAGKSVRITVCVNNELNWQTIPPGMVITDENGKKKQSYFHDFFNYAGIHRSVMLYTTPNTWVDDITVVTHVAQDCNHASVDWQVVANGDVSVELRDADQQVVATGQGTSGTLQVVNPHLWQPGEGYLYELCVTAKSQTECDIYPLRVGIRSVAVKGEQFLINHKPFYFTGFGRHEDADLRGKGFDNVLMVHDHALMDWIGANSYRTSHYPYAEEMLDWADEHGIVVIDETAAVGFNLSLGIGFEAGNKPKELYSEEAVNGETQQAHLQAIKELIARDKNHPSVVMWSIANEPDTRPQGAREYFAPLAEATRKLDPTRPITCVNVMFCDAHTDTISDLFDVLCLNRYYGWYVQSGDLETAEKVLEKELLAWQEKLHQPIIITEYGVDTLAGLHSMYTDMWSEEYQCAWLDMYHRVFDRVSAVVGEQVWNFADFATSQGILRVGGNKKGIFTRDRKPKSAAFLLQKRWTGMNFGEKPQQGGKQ", "test": "In vitro enzymatic reaction with β-glucuronidase, headspace SPME GC-MS detection of phenol", "assay_type": "biochemical", "conditions": "pH 6.8 buffer, 37° C., 1 hour", "protocol": "A buffer is prepared with sterile water, the main components of the buffer include 75 millimoles per liter (mM) potassium phosphate (KH2PO4) and 1% bovine serum albumin (BSA), and 1 mole per liter (M) potassium hydroxide (KOH) is used to adjust the pH to 6.8. A phenyl-β-D-glucuronide solution is prepared with deionized water at a concentration of 0.75 grams per liter (g/L). The experiment is divided into a reactive group (also referred to as experimental group) and a control group, and 2.6 mL of deionized water, 2 mL of buffer and 1 mL of phenyl-β-D-glucuronide solution are successively added into two 20 mL injection bottles. After shaking well, they are stabilized in a water bath at 37° C. for 10 minutes. 2 microliters (μL) of β-glucuronidase glycerol solution (enzyme content: 500 U) are added in the bottle of the reactive group, and 2 uL of glycerol is added in the bottle of the control group. The covers are quickly tightened for reacting in a water bath at 37° C. for 1 hour. After the reaction, the aged extraction core is used for headspace solid-phase microextraction (also referred to as solid phase microextraction) for 30 minutes."}}, "data": [{"compound": "O=C(O)[C@H]1O[C@@H](Oc2ccccc2)[C@H](O)[C@@H](O)[C@@H]1O", "note": "[phenyl-β-D-glucuronide]", "values": [{"measurement": "peak area of phenyl-β-D-glucuronide", "setting": "[1]; bottle A, newly prepared", "result": 2143}, {"measurement": "peak area of phenyl-β-D-glucuronide", "setting": "[1]; bottle B, refrigerator at 4° C. for 2 weeks", "result": 2142}, {"measurement": "peak area of phenyl-β-D-glucuronide", "setting": "[1]; bottle C, room temperature (25° C.) for 1 week", "result": 2144}, {"measurement": "peak area of phenyl-β-D-glucuronide", "setting": "[1]; bottle D, heated 7 hours at 38.5° C. in a water bath", "result": 2160}, {"measurement": "storage time of PBS solution", "setting": "[1]; 4° C. refrigerator", "result": "at least 2 weeks"}, {"measurement": "new substances produced (other peaks) in the four bottles of solutions", "setting": "[1]; all four storage conditions, UPLC-MS and PDA", "result": "no other peaks of the new substances produced"}, {"measurement": "peak of phenol in the four bottles of solutions compared with phenol standard", "setting": "[1]; all four storage conditions, versus 20 ppm phenol standard", "result": "no peak of phenol"}, {"measurement": "self-decomposition without the action of enzymes", "setting": "[1]; normal body temperature range (generally less than 38.5° C.)", "result": "will not decompose by itself"}, {"measurement": "storage time of PBS solution", "setting": "[1]; room temperature", "result": "at least 1 week"}, {"measurement": "cell viability", "setting": "[2]", "result": "greater than 90%"}, {"measurement": "phenol level in exhaled breath, tumor bearing mouse group versus healthy mouse group", "setting": "[3]; Day 0 (no solid tumors), 200 μg/kg intravenously, Mann-Whitney U-test", "result": "consistent without significant difference"}, {"measurement": "phenol level in exhaled breath, tumor bearing mouse group versus healthy group", "setting": "[3]; from the 10th day onwards (solid tumors about 100 mm^3), 200 μg/kg intravenously, p<0.01", "result": "significantly higher"}, {"measurement": "toxic or side effect in animal experiment", "setting": "[3]; mouse, in vivo", "result": "no toxic or side effect"}, {"measurement": "fitted curve parameter A (tumor volume=A+B*phenol level in exhaled breath)", "setting": "[3]; tumor bearing mice, FIG. 6", "result": "2065116.64068±293370.09484"}, {"measurement": "fitted curve parameter B (tumor volume=A+B*phenol level in exhaled breath)", "setting": "[3]; tumor bearing mice, FIG. 6", "result": "26167.51388±981.4"}, {"measurement": "decomposition of substrate without β-glucuronidase", "setting": "β-glucuronidase; control group, glycerol instead of enzyme", "result": "not decomposed"}, {"measurement": "phenol production under the action of β-glucuronidase", "setting": "β-glucuronidase; experimental group, 500 U enzyme", "result": "produces phenol"}]}]}
